Experimental data published in US9796697B2, “Tricyclic inhibitors of HIF-2-alpha and uses thereof” (Peloton Therapeutics, Inc., priority 2015, dated 2017).

What was measured:
[1] = molecular target: T1, HIF-2α HIS TAG-PASB Domain (Homo sapiens, UniProt Q99814); assay: HIF-2α Scintillation Proximity Assay (SPA); assay type: binding; settings: displacement of tritiated probe N-(3-Chlorophenyl-4,6-t2)-4-nitrobenzo[c][1,2,5]oxadiazol-5-amine from HIF-2α PASB domain
T1 construct: 100 nM HIF-2α HIS TAG-PASB Domain
T1 sequence (Q99814 239-348): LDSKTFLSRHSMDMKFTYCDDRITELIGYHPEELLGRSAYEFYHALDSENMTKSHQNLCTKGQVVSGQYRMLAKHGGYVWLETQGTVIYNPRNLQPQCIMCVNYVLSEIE
Experimental: Example 8: HIF-2α Scintillation Proximity Assay (SPA)
The total assay volume was about 100 μL in the following configuration: 2 μL compound in 100% DMSO, 88 μL buffer with protein and probe and 10 μL of SPA beads. The compound was diluted in a master plate consisting of a 10-point dose response with a 3-fold compound dilution from 100 μM to 5 nM. Assays were run on a 96-well plate in which one column, designated as the high signal control, contained DMSO with no compound and another column, designated as the low signal control, contained no protein. Prior to plating out of compound, a buffer solution, consisting of 25 mM TRIS pH 7.5 (Sigma), 150 mM NaCl (Sigma), 15% Glycerol (Sigma), 0.15% BSA (Sigma), 0.001% Tween-20 (Sigma), 150 nM N-(3-Chlorophenyl-4,6-t2)-4-nitrobenzo[c][1,2,5]oxadiazol-5-amine and 100 nM HIF-2α HIS TAG-PASB Domain, was made and allowed to equilibrate for 30 minutes. Compounds that were to be tested were then plated in to a 96-well white clear bottom Isoplate-96 SPA plate (Perkin Elmer). To the compounds was added 88 μL of the buffer solution, then the plate covered with a plastic cover and aluminum foil, placed onto a shaker and equilibrated for 1 hour. After equilibration, 10 μL of a 2 mg/mL solution of YSi Cu His tagged SPA beads (Perkin Elmer) were then added to each well of the plate, covered and equilibrated for another 2 hours. The plates were then removed from the shaker, placed into a 1450 LSC and luminescence counter MicroBeta Trilux (Perkin Elmer) to measure the extent of probe displacement. The percent inhibition was determined and IC50 values were calculated using the Dotmatics system based on the following equation: % inhibition=[(high control−sample)/(high control−low control)]×100.

786-O-Hif-Luc cells = assay: Luciferase Assay; assay type: cell-based; settings: HIF responsive element luciferase reporter, about 24 hours
Experimental: Example 10: Luciferase Assay
786-O-Hif-Luc single clone cells were obtained by infecting 786-0 cells (ATCC® CRL-1932™) with commercial lentivirus that delivers a luciferase gene driven by multiple HIF responsive elements (Cignal Lenti HIF Reporter (luc): CLS-007L, Qiagen) at Multiplicity of Infection (MOI) of 25 for 24 hours. The cells were replenished with fresh medium (Dulbecco's Modified Eagle's Medium (DMEM, D5796, Sigma) supplemented with 10% FBS (F6178, Sigma), 100 units penicillin and 100 μg streptomycin/mL (P4333, Sigma)) for another 24 hours. A pool of infected cells were then selected against 2 μg/mL of puromycin (P8833, Sigma) for 10 days followed by limited dilution to select single clones. […] For the luciferase assay, about 7500 786-O-Hif-Luc cells in 90 μL growth medium were seeded into each well of a 96-well white opaque plate (08-771-26, Fisher scientific) a day before treatment with the layout presented in FIG. 2.
On treatment day, serial dilutions of 10× compound stocks were made in growth medium from 500×DMSO stocks, and 10 μL, of the 10× stocks were added to each well to make final concentrations as follows GAM): 20, 6.67, […], 0.74, 0.25, 0.08, 0.027, 0.009, 0.003, 0.001, and 0. Each concentration was tested in triplicate. After about 24 hours, luciferase activity was determined using ONE-Glo Luciferase Assay Reagent (E6110, Promega) following the manufacturer's recommended procedure. EC50 were calculated using Dotmatics software.

786-O cells = assay: VEGF ELISA Assay; assay type: cell-based; settings: Homo sapiens, 786-0; VEGF concentration in culture medium of 786-O cells
Experimental: Example 9: VEGF ELISA Assay
About 7500 786-O cells in 180 μL of growth medium were seeded into each well of a 96-well, white, clear bottom plate (07-200-566, Fisher Scientific) on day one in the layout presented in FIG. 1.
Four hours later, serial dilutions of 10× compound stocks were made in growth medium from 500×DMSO stocks, and 20 μL of those 10× stocks were added to each well to make final concentrations as follows (μM): 20, 6.67, 2.22, 0.74, 0.25, 0.082, 0.027, 0.009, 0.003, 0.001, and 0. Each concentration was plated in duplicate. About 20 hours later, medium was removed by suction and each well was supplied with 180 μL of growth medium. About 20 μl freshly-made 10× compound stocks were added to each well. […] The EC50 was calculated by GraphPad Prism using the dose-response-inhibition (four parameter) equation. The cell-seeded plate was then subjected to CellTiter-Glo luminescence cell viability assay (Promega) by adding 50 μL of Celltiter Glo reagent into each well and shaking the plate for 8 minutes at 550 rpm (Thermomixer R, Eppendorf) then the luminescence signal immediately read in a plate reader (3 second delay, 0.5 second/well integration time, Synergy 2 multi Detection Microplate reader).

EC50 [1]	EC50 (786-O-Hif-Luc cells)	EC50 (786-O cells)	SMILES
> 1000 nM	–	–	C=C1CC2(O)CS(=O)(=O)c3ccc(Oc4cc(F)cc(C#N)c4)c1c32 (centres unmarked) [Compound 12]
> 1000 nM	> 1000 nM	–	N#Cc1cc(F)cc(Oc2ccc3c4c2C(F)C(F)C4(O)CS3(=O)=O)c1 (centres unmarked) [Compound 5]
< 50 nM	< 50 nM	50 to 249 nM	N#Cc1cc(F)cc(Oc2ccc3c4c2C(F)CC4(O)C(F)(F)S3(=O)=O)c1 (centres unmarked) [Compound 6, 3-fluoro-5-((2,2,4-trifluoro-2a-hydroxy-1,1-dioxido-2,2a,3,4-tetrahydroindeno[7,1-bc]thiophen-5-yl)oxy)benzonitrile]
< 50 nM	< 50 nM	< 50 nM	N#Cc1cc(F)cc(Oc2ccc3c4c2[C@@H](F)C[C@]4(O)C(F)(F)S3(=O)=O)c1 [Compound 15]
> 1000 nM	–	–	N#Cc1cc(F)cc(Oc2ccc3c4c2C(F)CC4(O)CS3(=O)=O)c1 (centres unmarked) [Compound 7]
< 50 nM	250 to 1000 nM	–	C=C1CC2(O)c3c(ccc(Oc4cncc(C#N)c4)c31)S(=O)(=O)C2(F)F (centres unmarked) [Compound 14]
< 50 nM	< 50 nM	< 50 nM	C=C1CC2(O)c3c(ccc(Oc4cc(F)cc(C#N)c4)c31)S(=O)(=O)C2(F)F (centres unmarked) [Compound 13, 3-((2,2-difluoro-2a-hydroxy-4-methylene-1,1-dioxido-2,2a,3,4-tetrahydroindeno[7,1-bc]thiophen-5-yl)oxy)-5-fluorobenzonitrile]
250 to 1000 nM	–	–	N#Cc1cc(F)cc(Oc2ccc3c4c2C(F)CC4(F)C(F)(F)S3(=O)=O)c1 (centres unmarked) [Compound 10, 3-fluoro-5-((2,2,2a,4-tetrafluoro-1,1-dioxido-2,2a,3,4-tetrahydroindeno[7,1-bc]thiophen-5-yl)oxy)benzonitrile]
50 to 249 nM	250 to 1000 nM	–	N#Cc1cc(F)cc(Oc2ccc3c4c2CCC4C(F)(F)S3(=O)=O)c1 (centres unmarked) [Compound 18]
> 1000 nM	–	–	N#Cc1cc(F)cc(Oc2ccc3c4c2C(F)C(F)C4(F)CS3(=O)=O)c1 (centres unmarked) [Compound 16]
> 1000 nM	–	–	N#Cc1cncc(Oc2ccc3c4c2C(F)CC4(F)C(F)(F)S3(=O)=O)c1 (centres unmarked) [Compound 2]
> 1000 nM	–	–	N#Cc1cc(F)cc(Oc2ccc3c4c2C(F)C[C@@]4(O)C(F)(F)S3(=O)=O)c1 (some centres unmarked) [Compound 20]
> 1000 nM	–	–	N#Cc1cc(F)cc(Oc2ccc3c4c2C(F)CC4(F)CS3(=O)=O)c1 (centres unmarked) [Compound 1]
50 to 249 nM	50 to 249 nM	–	CC1CC2(O)c3c(ccc(Oc4cc(F)cc(C#N)c4)c31)S(=O)(=O)C2(F)F (centres unmarked) [Compound 8, 3-((2,2-difluoro-2a-hydroxy-4-methyl-1,1-dioxido-2,2a,3,4-tetrahydroindeno[7,1-bc]thiophen-5-yl)oxy)-5-fluorobenzonitrile]
> 1000 nM	–	–	C=C1CC2(O)c3c(ccc(OCC(F)F)c31)S(=O)(=O)C2(F)F (centres unmarked) [Compound 17]
50 to 249 nM	50 to 249 nM	–	N#Cc1cc(F)cc(Oc2ccc3c4c2CCC4(O)C(F)(F)S3(=O)=O)c1 (centres unmarked) [Compound 4]
250 to 1000 nM	250 to 1000 nM	–	N#Cc1cc(F)cc(Oc2ccc3c4c2C(=O)CC4(O)C(F)(F)S3(=O)=O)c1 (centres unmarked) [Compound 11, 3-((2,2-difluoro-2a-hydroxy-1,1-dioxido-4-oxo-2,2a,3,4-tetrahydroindeno[7,1-bc]thiophen-5-yl)oxy)-5-fluorobenzonitrile]
250 to 1000 nM	250 to 1000 nM	–	C=C1CC2(O)c3c(ccc(Oc4cncc(F)c4)c31)S(=O)(=O)C2(F)F (centres unmarked) [Compound 9]
50 to 249 nM	250 to 1000 nM	–	C=C1CC2(N)c3c(ccc(Oc4cc(F)cc(C#N)c4)c31)S(=O)(=O)C2(F)F (centres unmarked) [Compound 3, 3-((2a-amino-2,2-difluoro-4-methylene-1,1-dioxido-2,2a,3,4-tetrahydroindeno[7,1-bc]thiophen-5-yl)oxy)-5-fluorobenzonitrile]
50 to 249 nM	250 to 1000 nM	–	N#Cc1cncc(Oc2ccc3c4c2C(F)CC4(O)C(F)(F)S3(=O)=O)c1 (centres unmarked) [Compound 19]
